The values that follow come from article PMC8036666, “Biological and Physico-Chemical Characteristics of Arginine-Rich Peptide Gemini Surfactants with Lysine and Cystine Spacers” (International Journal of Molecular Sciences, 2021).

The subject of data set [1] is E. coli ML-35 (ATCC 43827). Kind of data set: Outer membrane (OM) permeabilization kinetics, CENTA. The class given is cell-based, Escherichia coli. The settings on record: over 3 h, 2 µg/mL (MIC). The text has this: (§1) The permeabilization of E. coli ML-35 (ATCC 43827) membranes was studied for selected compounds (A4, B2, C2, B7, and C7) to compare their activity and membrane disruption over time. […] For OM and IM permeabilization, CENTA and ONPG were used, respectively. The permeabilization of OM causes the release of periplasmic β-lactamase, which hydrolyzes CENTA’s β-lactam ring to form a chromophore, 2-nitro-5-thiobenzoate (TNB) anion, while the disruption of IM results in the release of β-galactosidase, which hydrolyzes ONPG into galactose and a chromophore, ortho-nitrophenol (ONP). Both products of enzymatic reaction absorb light at 405 nm.
Inner and outer membranes permeabilization kinetics were evaluated using Escherichia coli ML-35 (ATCC 43827) and chromogenic substrates—CENTA (BioVision, Milpitas, CA, USA) and o-nitrophenyl-β-d-galactopyranoside (ONPG) (Sigma-Aldrich, Steinheim, Germany), as described previously. To examine OM permeabilization, CENTA was used as a β-lactamase substrate. In effect of OM permeabilization, the enzyme can hydrolyze CENTA’s β-lactam ring.

Data set [2] concerns E. coli ML-35 (ATCC 43827).
Excerpt: as §1
The MICs were determined by the broth microdilution method according to the Clinical and Laboratory Standard Institute guidelines. For this purpose, initial inoculums of bacteria (5 × 10^5 CFU/mL) in MHB and yeasts (2 × 10^3 CFU/mL) in RPMI-1640 with 2% D-glucose were exposed to the ranging concentration of lipopeptides (0.5–256 μg/mL) and incubated at 37 °C for 18 h and 24 h, respectively. The experiments were conducted on 96-well microtiter polystyrene plates (Kartell, Noviglio, Italy). The growth was assessed visually after incubation, and the MIC was assumed as the lowest peptide concentration at which a noticeable growth of microorganisms was inhibited. All experiments were conducted in triplicate.
Inner and outer membranes permeabilization kinetics were evaluated using Escherichia coli ML-35 (ATCC 43827) and chromogenic substrates—CENTA (BioVision, Milpitas, CA, USA) and o-nitrophenyl-β-d-galactopyranoside (ONPG) (Sigma-Aldrich, Steinheim, Germany), as described previously. To examine OM permeabilization, CENTA was used as a β-lactamase substrate. In effect of OM permeabilization, the enzyme can hydrolyze CENTA’s β-lactam ring. The resulting color change (2-nitro-5-thiobenzoate anion, TNB^-) could be measured spectrophotometrically at 405 nm. The IM permeabilization was monitored with ONPG, which is a chromogenic β-galactosidase substrate. The product of this reaction ([…]) was measured spectrophotometrically at 405 nm (Multiskan GO Microplate Spectrophotometer, Thermo Fisher Scientific, Vantaa, Finland). […] Bacteria were incubated in lysogeny broth medium (LB; Biocorp, Warszawa, Poland) for 24 h at 37 °C. Subsequently, the cells were diluted in a fresh LB medium and incubated at 37 °C up to a mid-log phase (ca. 3 h). The culture was centrifuged (3 min, 1100× g) and rinsed twice with a PBS. The bacteria were resuspended in PBS up to a concentration of 5 × 10^6 CFU/mL. The final concentration of ONPG and CENTA was 1.5 mM and 0.15 mM, respectively. The ONPG/CENTA in PBS (Sigma-Aldrich, Steinheim, Germany) was used as a negative control. […] Readings were taken every 15 min for 3 h at 37 °C [125, 142, 143, 144]. Experiments were performed in triplicate on 96-well flat bottom microtiter polystyrene plates.

Data set [3] concerns Pseudomonas aeruginosa ATCC 9027. Set-up: method as in PMID 31581500. As to conditions: biofilm, previous study ref 65; cited from earlier work.
Data set [4] deals with Staphylococcus aureus ATCC 25923. Also on record: method as in PMID 31581500. As to conditions: planktonic culture, previous study ref 65; cited from earlier work.

Where only a bound is given, the exact number is not on record here.

Take polymyxin B [reference compound]: in data set [1], the “increase of absorbance at 405 nm, OM permeabilization” value is recorded as “ca. 0.25 AU”. Also, the “MIC E. coli ML-35 (ATCC 43827)” value in data set [2] came to 2 µg/mL.
On to C12-KKC-NH2 [Compound C12-KKC-NH2], for which the “MBEC P. aeruginosa ATCC 9027” value in data set [3] is over 512.
As to C14-KKC-NH2 [Compound C14-KKC-NH2], the “MIC S. aureus ATCC 25923” value in data set [4] is given as 32 µg/mL.
